Measurements reported in PubChem BioAssay AID248 (DTP/NCI, 2004).
“And” between values parts separate entries of the source, which are not always exact repeats. Equal values may be shown once. Toxic doses and inconclusive results are not listed. No stated cut-off is given here; in the data, active means T/C of 150% or more; inactive means T/C below 125%.

System: L1210 leukemia ip in BDF1 mice, survival T/C
Assay: NCI In Vivo Anticancer Drug Screen. Data for tumor model L1210 Leukemia (intraperitoneal) in B6D2F1 (BDF1) mice
Details: endpoint: mean survival time, higher = longer survival
Method in brief: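 Value reflects the ratio of survival in compound-treated mice to survival in vehicle-treated controls, with both groups carrying the same transplanted tumor.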

[1] = dose: 100.0 mg/kg/injection, schedule: Q01DX001 (ip), vehicle: saline
[2] = dose: 200.0 mg/kg/injection, schedule: Q01DX001 (ip), vehicle: saline
[3] = dose: 100.0 mg/kg/injection, schedule: Q04DX003 (ip), vehicle: saline with Tween-80
[4] = dose: 200.0 mg/kg/injection, schedule: Q04DX003 (ip), vehicle: saline with Tween-80
[5] = dose: 400.0 mg/kg/injection, schedule: Q04DX003 (ip), vehicle: saline with Tween-80
[6] = dose: 100.0 mg/kg/injection, schedule: Q01DX009 (ip), vehicle: saline with Tween-80
[7] = dose: 100.0 mg/kg/injection, schedule: Q04DX003 (ip), vehicle: Klucel (hydroxypropylcellulose) (HPC)
[8] = dose: 200.0 mg/kg/injection, schedule: Q01DX009 (ip), vehicle: saline with Tween-80
[9] = dose: 200.0 mg/kg/injection, schedule: Q04DX003 (ip), vehicle: Klucel (hydroxypropylcellulose) (HPC)
[10] = dose: 400.0 mg/kg/injection, schedule: Q01DX009 (ip), vehicle: saline with Tween-80
[11] = dose: 400.0 mg/kg/injection, schedule: Q04DX003 (ip), vehicle: Klucel (hydroxypropylcellulose) (HPC)
[12] = dose: 6.25 mg/kg/injection, schedule: Q01DX009 (ip), vehicle: saline
[13] = dose: 12.5 mg/kg/injection, schedule: Q01DX009 (ip), vehicle: saline
[14] = dose: 25.0 mg/kg/injection, schedule: Q01DX009 (ip), vehicle: saline
[15] = dose: 25.0 mg/kg/injection, schedule: Q04DX002 (ip), vehicle: saline with Tween-80
[16] = dose: 100.0 mg/kg/injection, schedule: Q01DX009 (ip), vehicle: Klucel (hydroxypropylcellulose) (HPC)
[17] = dose: 200.0 mg/kg/injection, schedule: Q01DX009 (ip), vehicle: Klucel (hydroxypropylcellulose) (HPC)
[18] = dose: 400.0 mg/kg/injection, schedule: Q01DX009 (ip), vehicle: Klucel (hydroxypropylcellulose) (HPC)
[19] = dose: 200.0 mg/kg/injection, schedule: Q01DX001 (ip), vehicle: Klucel (hydroxypropylcellulose) (HPC)

Measured: T/C

NC(=O)C(Cc1ccc(O)cc1)N(CCO)CCO (stereo not drawn)
inactive: [1] 101 % of control | [2] 101 % of control | dose: 400.0 mg/kg/injection, schedule: Q01DX001 (ip), vehicle: saline 104 % of control

O=C(COc1ccccc1[N+](=O)[O-])Nc1cccnc1
inactive: [3] 104 % of control | [4] 98 % of control | [5] 98 % of control

O=C(O)CC(SC(CC(=O)O)C(F)(F)C(F)(F)C(F)(F)F)C(F)(F)C(F)(F)C(F)(F)F (stereo not drawn)
inactive: [6] 94 % of control | [7] 108 % of control | [8] 97 % of control | [9] 97 % of control | [10] 94 % of control | [11] 88 % of control

CN1CC(C(=O)NC(C)(C)C)CC(c2ccccc2)C1 (stereo not drawn)
inactive: [12] 91 % of control | [13] 86 % of control | [14] 86 % of control

c1ccc2c(c1)Nc1ccccc1[As]2C1CCCCC1
inactive: dose: 12.5 mg/kg/injection, schedule: Q04DX002 (ip), vehicle: saline with Tween-80 99 % of control | [15] 99 % of control | dose: 50.0 mg/kg/injection, schedule: Q04DX002 (ip), vehicle: saline with Tween-80 101 % of control

N#Cc1ccc(C(=O)C=C(C(F)(F)F)C(F)(F)F)cc1
inactive: dose: 6.25 mg/kg/injection, schedule: Q01DX009 (ip), vehicle: other 95 % of control | dose: 12.5 mg/kg/injection, schedule: Q01DX009 (ip), vehicle: other 98 % of control

CCS(=O)(=O)C(c1ccccc1)S(=O)(=O)CC
inactive: dose: 100.0 mg/kg/injection, schedule: Q01DX001 (ip), vehicle: carboxymethylcellulose (CMC) 95 % of control | dose: 200.0 mg/kg/injection, schedule: Q01DX001 (ip), vehicle: carboxymethylcellulose (CMC) 87 % of control | dose: 400.0 mg/kg/injection, schedule: Q01DX001 (ip), vehicle: carboxymethylcellulose (CMC) 98 % of control

COC(=O)CCCCCNC(=O)NCCCCCC(=O)OC
inactive: [16] 90 % of control | [7] 95 % of control | [17] 87 % of control | [9] 93 % of control | [18] 90 % of control | [11] 93 % of control

CCOC(=O)C(C)(C)CCl
inactive: [16] 100 % of control | [17] 94 % of control | [18] 103 % of control

COC(=O)c1ccccc1NC(=O)c1ccccc1[N+](=O)[O-]
inactive: dose: 75.0 mg/kg/injection, schedule: Q04DX003 (ip), vehicle: Klucel (hydroxypropylcellulose) (HPC) 101 % of control | dose: 100.0 mg/kg/injection, schedule: Q01DX001 (ip), vehicle: Klucel (hydroxypropylcellulose) (HPC) 95 % of control | dose: 150.0 mg/kg/injection, schedule: Q04DX003 (ip), vehicle: Klucel (hydroxypropylcellulose) (HPC) 98 % of control | [19] 100 % of control | dose: 300.0 mg/kg/injection, schedule: Q04DX003 (ip), vehicle: Klucel (hydroxypropylcellulose) (HPC) 97 % of control | dose: 400.0 mg/kg/injection, schedule: Q01DX001 (ip), vehicle: Klucel (hydroxypropylcellulose) (HPC) 95 % of control

c1ccc(CCN2CCCCC2)cc1
inactive: dose: 10.0 mg/kg/injection, schedule: Q01DX001 (ip), vehicle: saline 95 % of control | dose: 20.0 mg/kg/injection, schedule: Q01DX001 (ip), vehicle: saline 116 % of control | dose: 40.0 mg/kg/injection, schedule: Q01DX001 (ip), vehicle: saline 96 % of control

C=C(C)C1CCC2(C=O)CCC3(C)C(CCC4C5(C)CCC(OC6CCCCO6)C(C)(C)C5CCC43C)C12 (stereo not drawn)
inactive: [15] 90 % of control | dose: 100.0 mg/kg/injection, schedule: Q04DX002 (ip), vehicle: saline with Tween-80 90 % of control

CC(=Nc1cccc2ccccc12)c1c(O)cc(C)oc1=O
inactive: [16] 100 % of control | dose: 100.0 mg/kg/injection, schedule: Q04DX002 (ip), vehicle: Klucel (hydroxypropylcellulose) (HPC) 98 % of control | [17] 95 % of control | dose: 200.0 mg/kg/injection, schedule: Q04DX002 (ip), vehicle: Klucel (hydroxypropylcellulose) (HPC) 98 % of control | [18] 92 % of control | dose: 400.0 mg/kg/injection, schedule: Q04DX002 (ip), vehicle: Klucel (hydroxypropylcellulose) (HPC) 95 % of control

N=C(N)c1cccc(NC(=O)c2ccc(C(=O)Nc3cccc(C(=N)N)c3)c([N+](=O)[O-])c2)c1
inactive: dose: 1.0 mg/kg/injection, schedule: Q01DX015 (ip), vehicle: water 96 % of control | dose: 2.0 mg/kg/injection, schedule: Q01DX015 (ip), vehicle: water 96 % of control | dose: 4.0 mg/kg/injection, schedule: Q01DX015 (ip), vehicle: water 102 % of control | dose: 8.0 mg/kg/injection, schedule: Q01DX015 (ip), vehicle: water 102 % of control and 109 % of control | dose: 16.0 mg/kg/injection, schedule: Q01DX015 (ip), vehicle: water 115 % of control

CC(=O)Oc1cc(C(C)C)c(OCCN(C)C)cc1C
inactive: [12] 94 % of control | [13] 98 % of control | [14] 100 % of control

COc1cccc(NC(=O)Nc2cccc(C(F)(F)F)c2)c1
inactive: [16] 96 % of control | [17] 101 % of control | [18] 101 % of control

COc1ccccc1/C=C/[N+](=O)[O-]
inactive: dose: 50.0 mg/kg/injection, schedule: Q04DX003 (ip), vehicle: Klucel (hydroxypropylcellulose) (HPC) 95 % of control | [7] 101 % of control

COc1cc(-c2c3c(cc4c2OCO4)CC(O)C(C(=O)O)C3)cc(OC)c1OC (stereo not drawn)
inactive: dose: 75.0 mg/kg/injection, schedule: Q01DX001 (ip), vehicle: saline 95 % of control | dose: 150.0 mg/kg/injection, schedule: Q01DX001 (ip), vehicle: saline 116 % of control | [19] 109 % of control | [2] 114 % of control | dose: 300.0 mg/kg/injection, schedule: Q01DX001 (ip), vehicle: Klucel (hydroxypropylcellulose) (HPC) 116 % of control

COC(=O)/C(=C\c1ccccc1)CNC(C)(C)C
inactive: [1] 100 % of control | [2] 97 % of control

CCOC(=O)c1cnc(SC)nc1NCc1ccco1
inactive: [6] 95 % of control | [3] 100 % of control | [8] 97 % of control | [4] 97 % of control | [10] 106 % of control | [5] 92 % of control

NC(CSS(=O)(=O)O)=NCCCCCN=C(N)CSS(=O)(=O)O
inactive: dose: 12.5 mg/kg/injection, schedule: Q04DX003 (ip), vehicle: saline with Tween-80 108 % of control | dose: 25.0 mg/kg/injection, schedule: Q04DX003 (ip), vehicle: saline with Tween-80 102 % of control | dose: 50.0 mg/kg/injection, schedule: Q04DX003 (ip), vehicle: saline with Tween-80 96 % of control

Nc1nc2ncc(CCNc3ccc(C(=O)NC(CCC(=O)O)C(=O)O)cc3)nc2c(=O)[nH]1 (stereo not drawn)
inactive: dose: 18.75 mg/kg/injection, schedule: Q01DX001 (ip), vehicle: other 96 % of control | dose: 18.75 mg/kg/injection, schedule: Q01DX Z (ip), vehicle: other 103 % of control | dose: 37.5 mg/kg/injection, schedule: Q01DX001 (ip), vehicle: other 97 % of control | dose: 37.5 mg/kg/injection, schedule: Q01DX Z (ip), vehicle: other 102 % of control | dose: 75.0 mg/kg/injection, schedule: Q01DX001 (ip), vehicle: other 104 % of control | dose: 75.0 mg/kg/injection, schedule: Q01DX Z (ip), vehicle: other 112 % of control | dose: 150.0 mg/kg/injection, schedule: Q01DX001 (ip), vehicle: other 119 % of control

CC(=O)c1cccc(NC(=O)Oc2cc(=O)oc3ccccc23)c1
inactive: dose: 25.0 mg/kg/injection, schedule: Q01DX009 (ip), vehicle: Klucel (hydroxypropylcellulose) (HPC) 92 % of control | dose: 50.0 mg/kg/injection, schedule: Q01DX009 (ip), vehicle: Klucel (hydroxypropylcellulose) (HPC) 101 % of control | [16] 101 % of control
